{"source": "patent US11207301B2", "about": "“Sphingosine 1 phosphate receptor agonists for neuroprotection” (RECEPTOS LLC, priority 2017, dated 2021)", "key": {"[1]": {"test_system": "primary rodent astrocytes", "assay": "Primary rodent astrocytes in vitro, resting and LPS-activated", "format": "cell-based", "description": "(§1) In addition, the effects of ozanimod on the CNS were examined in vivo using the cuprizone-induced mouse model of demyelination and in vitro in primary rodent astrocytes. Efficacy of ozanimod or compound (2-R) was examined in the cuprizone-induced mouse model of neuroprotection. C57BL/6 mice were treated with cuprizone (0.3% weight/weight orally) and rapamycin (10 mg/kg intraperitoneally daily) to demyelinate axons in the brain and concurrently treated with ozanimod (0.1, 0.3, or 1 mg/kg) or compound (2-S) (1 mg/kg) by daily oral gavage to investigate its neuroprotective activity. Neuroprotection was assessed through examination of axonal pathology in the corpus callosum using SMI-32 (antineurofilament H non-phosphorylated mouse monoclonal antibody) staining, functional assessment through kinematic gait analysis and the plasma biomarker neurofilament light chain (NfL). Further, direct activity of ozanimod was examined in resting and activated primary rodent astrocytes in vitro."}, "[2]": {"test_system": "cuprizone-induced mouse model of demyelination", "assay": "Cuprizone-induced mouse model of demyelination / neuroprotection", "format": "in vivo, C57BL/6 mice", "description": "as §1, with “The effect of a S1P receptor agonist on spinal cord axial demyelination or reduction in axonal breaks can be assessed by measuring concentration of neurofilament light chain (NfL) in the plasma. NfL is released to the plasma following axonal injury and degeneration. Histological examination of axons with antineurofilament H non-phosphorylated mouse antibody SMI-32 can also be used to assess axonal demyelination or breaks. NfH is phosphorylated in healthy axons and unphosphorylated in damaged axons. In” for “In”"}}}
{"smiles": "CC(C)Oc1ccc(-c2nc(-c3cccc4c3CC[C@@H]4NCCO)no2)cc1C#N", "note": "[Ozanimod]", "values": [{"measurement": "release of pro-inflammatory cytokines, including IL-1β, TNFα, IL-6, and KC/GRO", "setting": "[1]; induced by LPS activation", "result": "attenuated the release of pro-inflammatory cytokines"}, {"measurement": "ERK and AKT signaling pathways", "setting": "[1]; primary rodent astrocytes", "result": "directly activated ERK and AKT signaling pathways"}, {"measurement": "overall kinematic gait score", "setting": "[2]; 0.1, 0.3, or 1 mg/kg vs vehicle (FIG. 3)", "result": "significantly improved overall kinematic gait score"}, {"measurement": "kinematic gait", "setting": "[2]; cuprizone-induced demyelinated mice vs vehicle, 1 mg/kg (FIG. 2)", "result": "improved kinematic gait"}, {"measurement": "neuroprotection, reduction in swollen and transected axons", "setting": "[2]; cuprizone-induced mouse model", "result": "neuroprotective"}]}
